Experimental data as given in patent US12083124B2 (Incyte Corporation, priority 2019, dated 2024).
Like-named read-outs stand apart in the source and are kept apart here.

Assays:
[1] = biological target: wild-type un-phosphorylated FGFR3 (Homo sapiens, UniProt P22607); experiment: FGFR Enzymatic Assay (FRET peptide phosphorylation), FGFR3
[2] = biological target: wild-type un-phosphorylated FGFR2 (Homo sapiens, UniProt P21802); experiment: FGFR Enzymatic Assay (FRET peptide phosphorylation), FGFR2
Procedure: (§1) The inhibitor potency of the exemplified compounds was determined in an enzyme discontinuous assay that measures peptide phosphorylation using FRET measurements to detect product formation. Inhibitors were serially diluted in DMSO and a volume of 0.2 μL was transferred to the wells of a 384-well plate. […] Appropriate controls (enzyme blank and enzyme with no inhibitor) were included on the plate. […] The 10 μL/well reaction concentration of the peptide substrate was 500 nM whereas the ATP concentration was maintained near or below the ATP Km. The ATP Km values were pre-determined in a separate series of experiments. The reaction plate was incubated at 25° C. for 1 hr and the reactions were ended with the addition of 5 μL/well of quench solution (50 mM Tris, 150 mM NaCl, 0.5 mg/mL BSA, pH 7.8; 45 mM EDTA, 600 nM staurosporin, with Perkin Elmer Lance Reagents at 3.75 nM Eu-antibody PY20 and 180 nM APC-Streptavidin). The plate was allowed to equilibrate for ˜10 minutes at ambient temperature before scanning on a PheraStar plate reader (BMG Labtech) instrument.
(§2) Either GraphPad prism or XLfit was used to analyze the data. The IC50 values were derived by fitting the data to a four parameter logistic equation producing a sigmoidal dose-response curve with a variable Hill coefficient. Prism equation: Y=Bottom+(Top-Bottom)/(1+10^((Log IC50-X)*Hill slope)); XLfit equation: Y=(A+((B−A)/(1+((X/C)^D)))) where X is the logarithm of inhibitor concentration and Y is the response.
(§3) GraphPad prism3 was used to analyze the data. The IC50 values were derived by fitting the data to the equation for a sigmoidal dose-response with a variable slope. Y=Bottom+(Top-Bottom)/(1+10^((Log IC50-X)*Hill Slope)) where X is the logarithm of concentration and Y is the response.
(§4) The data in Table 1 was measured in wild-type un-phosphorylated FGFR1, FGFR2, FGFR3, and FGFR4 proteins.

[3] = biological target: wild-type un-phosphorylated FGFR1 (Homo sapiens, UniProt P11362); experiment: FGFR Enzymatic Assay (FRET peptide phosphorylation), FGFR1; conditions: pre-incubated for 4 hours
[4] = biological target: wild-type un-phosphorylated FGFR4 (Homo sapiens, UniProt P22455); experiment: FGFR Enzymatic Assay (FRET peptide phosphorylation), FGFR4
Procedure: as §1, §2, §3, §4

[5] = read-out: FGFR1, wild-type un-phosphorylated FGFR1
[6] = read-out: FGFR4, wild-type un-phosphorylated FGFR4, pre-incubated for 4 hours
[7] = FGFR1, wild-type un-phosphorylated FGFR1

wild-type un-phosphorylated FGFR1, sequence (P11362 22-822): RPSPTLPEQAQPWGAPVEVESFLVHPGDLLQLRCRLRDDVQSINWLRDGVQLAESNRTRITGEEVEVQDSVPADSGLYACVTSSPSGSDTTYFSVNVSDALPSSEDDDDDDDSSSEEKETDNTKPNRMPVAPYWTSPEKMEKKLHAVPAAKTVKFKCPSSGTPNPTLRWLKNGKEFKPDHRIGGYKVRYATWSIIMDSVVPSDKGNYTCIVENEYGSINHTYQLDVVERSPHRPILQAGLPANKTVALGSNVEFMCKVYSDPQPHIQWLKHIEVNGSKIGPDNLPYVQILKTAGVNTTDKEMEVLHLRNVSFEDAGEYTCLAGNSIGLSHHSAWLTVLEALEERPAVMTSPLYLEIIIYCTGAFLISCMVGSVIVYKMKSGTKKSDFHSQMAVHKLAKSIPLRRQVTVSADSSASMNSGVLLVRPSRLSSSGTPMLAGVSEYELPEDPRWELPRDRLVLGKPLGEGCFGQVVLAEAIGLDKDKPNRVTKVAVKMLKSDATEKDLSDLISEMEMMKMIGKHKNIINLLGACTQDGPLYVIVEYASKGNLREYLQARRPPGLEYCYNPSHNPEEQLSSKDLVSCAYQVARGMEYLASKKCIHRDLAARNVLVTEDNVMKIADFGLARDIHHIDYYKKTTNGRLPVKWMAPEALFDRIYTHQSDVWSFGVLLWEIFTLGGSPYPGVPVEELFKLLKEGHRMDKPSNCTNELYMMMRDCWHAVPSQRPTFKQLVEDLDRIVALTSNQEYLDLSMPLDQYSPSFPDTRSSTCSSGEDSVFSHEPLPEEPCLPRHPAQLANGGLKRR
wild-type un-phosphorylated FGFR2, sequence (P21802 22-821): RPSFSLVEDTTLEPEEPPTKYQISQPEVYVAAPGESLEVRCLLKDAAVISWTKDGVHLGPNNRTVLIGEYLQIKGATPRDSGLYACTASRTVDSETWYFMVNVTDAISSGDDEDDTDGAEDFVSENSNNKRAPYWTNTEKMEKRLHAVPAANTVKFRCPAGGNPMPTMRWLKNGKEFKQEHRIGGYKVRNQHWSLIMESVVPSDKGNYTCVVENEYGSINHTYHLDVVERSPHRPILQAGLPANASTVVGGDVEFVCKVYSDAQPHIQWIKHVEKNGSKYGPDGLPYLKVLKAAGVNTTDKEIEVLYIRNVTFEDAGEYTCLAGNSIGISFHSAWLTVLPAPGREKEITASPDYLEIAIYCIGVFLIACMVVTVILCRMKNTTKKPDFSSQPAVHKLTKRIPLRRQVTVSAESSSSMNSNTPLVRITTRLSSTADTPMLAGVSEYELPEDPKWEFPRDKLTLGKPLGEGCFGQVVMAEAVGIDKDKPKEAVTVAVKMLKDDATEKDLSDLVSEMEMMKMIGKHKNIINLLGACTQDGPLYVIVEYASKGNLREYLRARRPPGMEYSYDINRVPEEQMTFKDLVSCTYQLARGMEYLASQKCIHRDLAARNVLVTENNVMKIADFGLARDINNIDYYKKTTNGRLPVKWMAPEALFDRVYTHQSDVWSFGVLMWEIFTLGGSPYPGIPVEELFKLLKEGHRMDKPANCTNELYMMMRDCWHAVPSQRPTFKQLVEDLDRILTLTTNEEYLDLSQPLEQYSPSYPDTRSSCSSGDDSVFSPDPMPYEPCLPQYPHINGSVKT
wild-type un-phosphorylated FGFR3, sequence (P22607 23-806): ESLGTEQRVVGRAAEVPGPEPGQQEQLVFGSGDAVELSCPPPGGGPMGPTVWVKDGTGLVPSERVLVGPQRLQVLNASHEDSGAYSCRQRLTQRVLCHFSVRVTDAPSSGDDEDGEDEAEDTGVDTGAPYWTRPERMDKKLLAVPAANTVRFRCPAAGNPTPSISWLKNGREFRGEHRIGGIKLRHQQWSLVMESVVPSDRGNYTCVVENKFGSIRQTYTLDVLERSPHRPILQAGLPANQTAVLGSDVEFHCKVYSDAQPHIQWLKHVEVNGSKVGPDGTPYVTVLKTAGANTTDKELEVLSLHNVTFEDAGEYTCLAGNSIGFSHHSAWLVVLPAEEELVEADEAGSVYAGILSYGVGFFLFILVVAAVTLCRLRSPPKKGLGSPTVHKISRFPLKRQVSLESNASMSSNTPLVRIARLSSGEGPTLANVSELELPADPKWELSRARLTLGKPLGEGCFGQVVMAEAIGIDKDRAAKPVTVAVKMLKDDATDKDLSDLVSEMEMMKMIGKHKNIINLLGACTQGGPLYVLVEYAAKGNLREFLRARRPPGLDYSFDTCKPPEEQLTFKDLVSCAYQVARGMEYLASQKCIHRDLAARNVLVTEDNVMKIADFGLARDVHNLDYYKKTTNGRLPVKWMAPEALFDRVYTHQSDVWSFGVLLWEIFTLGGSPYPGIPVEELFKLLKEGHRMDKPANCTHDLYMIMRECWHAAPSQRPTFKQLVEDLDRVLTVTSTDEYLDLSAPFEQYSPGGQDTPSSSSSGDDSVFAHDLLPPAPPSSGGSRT
wild-type un-phosphorylated FGFR4, sequence (P22455 22-802): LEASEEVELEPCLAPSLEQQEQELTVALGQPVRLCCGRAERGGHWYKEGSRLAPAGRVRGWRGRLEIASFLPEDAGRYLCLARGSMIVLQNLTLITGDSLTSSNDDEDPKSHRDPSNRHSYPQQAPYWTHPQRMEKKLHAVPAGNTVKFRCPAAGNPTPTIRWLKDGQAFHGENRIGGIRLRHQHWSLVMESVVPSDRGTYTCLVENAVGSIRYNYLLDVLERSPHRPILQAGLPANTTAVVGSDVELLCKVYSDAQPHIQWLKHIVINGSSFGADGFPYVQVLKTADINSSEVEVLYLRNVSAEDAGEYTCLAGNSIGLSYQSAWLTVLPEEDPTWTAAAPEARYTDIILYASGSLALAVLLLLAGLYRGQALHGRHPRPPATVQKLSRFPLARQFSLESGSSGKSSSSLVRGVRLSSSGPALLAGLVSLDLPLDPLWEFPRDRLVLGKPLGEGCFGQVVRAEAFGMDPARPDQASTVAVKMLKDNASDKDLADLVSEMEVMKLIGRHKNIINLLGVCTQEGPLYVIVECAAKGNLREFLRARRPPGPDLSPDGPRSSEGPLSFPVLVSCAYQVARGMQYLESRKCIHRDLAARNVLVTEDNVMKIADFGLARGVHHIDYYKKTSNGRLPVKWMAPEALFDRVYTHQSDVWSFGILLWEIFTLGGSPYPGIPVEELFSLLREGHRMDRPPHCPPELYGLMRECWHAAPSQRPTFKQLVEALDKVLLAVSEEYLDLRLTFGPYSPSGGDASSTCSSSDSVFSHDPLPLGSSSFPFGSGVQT

SMILES	IC50 [1]	IC50 [2]	IC50 [3, 5]	IC50 [4, 6]	IC50 [4]	IC50 [3, 7]
COc1cc2[nH]nc(-c3ccc(C4CN(CCC#N)C4)nc3)c2nc1-c1cccc2c1CCC2 [Example 187, 3-(3-(5-(5-(2,3-Dihydro-1H-inden-4-yl)-6-methoxy-1H-pyrazolo[4,3-b]pyridin-3-yl)pyridin-2-yl)azetidin-1-yl)propanenitrile]	< 6 nM	< 6 nM	6 to 40 nM	6 to 40 nM	–	–
COCC(=O)N(C)C1CC(c2ccc(-c3n[nH]c4cc(OC)c(-c5cccc6c5CCC6)nc34)cn2)C1 (stereo not shown) [Example 188, N-(3-(5-(5-(2,3-Dihydro-1H-inden-4-yl)-6-methoxy-1H-pyrazolo[4,3-b]pyridin-3-yl)pyridin-2-yl)cyclobutyl)-2-methoxy-N-methylacetamide]	< 6 nM	< 6 nM	6 to 40 nM	6 to 40 nM	–	–
COc1cc2[nH]nc(-c3ccc(C4CC(N(C)C(=O)CCO)C4)nc3)c2nc1-c1cccc2c1CCC2 (stereo not shown) [Example 189, N-(3-(5-(5-(2,3-Dihydro-1H-inden-4-yl)-6-methoxy-1H-pyrazolo[4,3-b]pyridin-3-yl)pyridin-2-yl)cyclobutyl)-3-hydroxy-N-methylpropanamide]	< 6 nM	< 6 nM	6 to 40 nM	6 to 40 nM	–	–
COc1cc2[nH]nc(-c3ccc(C4CC(N(C)C(=O)[C@H](C)O)C4)nc3)c2nc1-c1cccc2c1CCC2 (stereo partly drawn) [Example 190, (S)-N-(3-(5-(5-(2,3-Dihydro-1H-inden-4-yl)-6-methoxy-1H-pyrazolo[4,3-b]pyridin-3-yl)pyridin-2-yl)cyclobutyl)-2-hydroxy-N-methylpropanamide]	< 6 nM	< 6 nM	6 to 40 nM	–	40 to 100 nM	–

More lines, now with the values ahead:

IC50 [1]	IC50 [2]	IC50 [3, 5]	IC50 [4, 6]	IC50 [4]	IC50 [3, 7]	SMILES
< 6 nM	< 6 nM	6 to 40 nM	6 to 40 nM	–	–	COc1cc2[nH]nc(-c3ccc(C45CC4CN(C(=O)CO)C5)nc3)c2nc1-c1cccc2c1CCC2 (stereo not shown) [Example 191A, 1-(1-(5-(5-(2,3-Dihydro-1H-inden-4-yl)-6-methoxy-1H-pyrazolo[4,3-b]pyridin-3-yl)pyridin-2-yl)-3-azabicyclo[3.1.0]hexan-3-yl)-2-hydroxyethan-1-one]
< 6 nM	< 6 nM	6 to 40 nM	6 to 40 nM	–	–	COc1cc2[nH]nc(-c3ccc(C45CC4CN(C4CCOCC4)C5)nc3)c2nc1-c1cccc2c1CCC2 (stereo not shown) [Example 193, 5-(2,3-Dihydro-1H-inden-4-yl)-6-methoxy-3-(6-(3-(tetrahydro-2H-pyran-4-yl)-3-azabicyclo[3.1.0]hexan-1-yl)pyridin-3-yl)-1H-pyrazolo[4,3-b]pyridine]
< 6 nM	< 6 nM	6 to 40 nM	6 to 40 nM	–	–	COc1cc2[nH]nc(-c3ccc(C45CC4CN(CCO)C5)nc3)c2nc1-c1cccc2c1CCC2 (stereo not shown) [Example 194A, 2-(1-(5-(5-(2,3-Dihydro-1H-inden-4-yl)-6-methoxy-1H-pyrazolo[4,3-b]pyridin-3-yl)pyridin-2-yl)-3-azabicyclo[3.1.0]hexan-3-yl)ethan-1-ol]
< 6 nM	< 6 nM	6 to 40 nM	–	40 to 100 nM	–	COc1cc2[nH]nc(-c3ccc(C4(C#N)CCN(C(=O)CO)C4)nc3)c2nc1-c1cccc2c1CCC2 (stereo not shown) [Example 198, 3-(5-(5-(2,3-Dihydro-1H-inden-4-yl)-6-methoxy-1H-pyrazolo[4,3-b]pyridin-3-yl)pyridin-2-yl)-1-(2-hydroxyacetyl)pyrrolidine-3-carbonitrile]
< 6 nM	< 6 nM	–	–	40 to 100 nM	40 to 100 nM	COc1cc2[nH]nc(-c3ccc(CN4CCN(C)C(=O)[C@@H]4C)nc3)c2nc1-c1cccc2c1CCC2 [Example 199, (S)-4-((5-(5-(2,3-Dihydro-1H-inden-4-yl)-6-methoxy-1H-pyrazolo[4,3-b]pyridin-3-yl)pyridin-2-yl)methyl)-1,3-dimethylpiperazin-2-one]
< 6 nM	< 6 nM	–	–	40 to 100 nM	40 to 100 nM	COc1cc2[nH]nc(-c3ccc(CN4C[C@H]5C[C@@H]4CO5)nc3)c2nc1-c1cccc2c1CCC2 [Example 200, (1R,4R)-5-((5-(5-(2,3-Dihydro-1H-inden-4-yl)-6-methoxy-1H-pyrazolo[4,3-b]pyridin-3-yl)pyridin-2-yl)methyl)-2-oxa-5-azabicyclo[2.2.1]heptane]
